pIC50: −log10 of the molar value. Counter-ions that a name gives are not always drawn. Like-named read-outs stand apart in the source and are kept apart here.
Assays:
intraperitoneal cells = assay: Histamine release reaction inhibition test (rat intraperitoneal cells, DNP-As antigen); format: cell-based, Wistar male rat; details: 10^-5 to 10^-10 M test compound, DNP-As stimulated intraperitoneal cells, 10^5 cells/ml, read-out: IC50 (dose of the test compound required for inhibiting the histamine release reaction by 50%)
Procedure: Histamine release reaction inhibition test
(1) Preparation of antiserum
Rat anti-dinitrophenylated ascaris protein (hereinafter referred to as "DNP-As") serum was prepared according to the method established by Tada et al. (Tada, T. and Okumura, K., J. Immun. 106(4), 1971). Specifically, 1010 organisms of Bordetella pertussis and 1 mg of DNP-As were intramuscularly administered to the foot pad of the limbs of Brown norway male rats weighing 200 g, and, five days after the administration, 0.5 mg of DNP-As was intramuscularly administered to the back. Three days after that, blood was collected to prepare an antiserum. The titer of the antiserum was determined by using a 48-hr passive cutaneous anaphylaxis reaction using a rat and found to be 1:1000 to 1:2000.
(2) Induction of histamine release reaction and release reaction inhibitory activity
The above serum was diluted four times with physiological brine, and 1 ml of the diluted serum was intraperitoneally administered to a Wistar male rat. Two days after the administration, the abdominal cavity was washed with phosphate buffer, and intraperitoneal cells were collected. The cells were adjusted to 10^5 cells/ml and stimulated with 1 pg/ml DNP-As, and the amount of the histamine released on the supernatant was measured by the method established by Shore et al (Shore, P. A., Burkhalter, A. H. and Chon Jr. V. H. J. Pharm. Exp. Ther., 127 , 182-186 (1959)).
The amount of the released histamine treated with 10^-5 to 10^-10 M test compound was compared with that of non-treated group. The dose of the test compound required for inhibiting the histamine release reaction by 50% (IC50) was calculated based on the percentage inhibition. IC50 of sodium cromoglicate was used as a control.

[1] = tested on: allergic foot-pad edema reaction; assay: Immediate and late phase allergic response inhibition test (allergic foot-pad edema reaction); format: in vivo, Wister male rats; details: Rattus norvegicus; for inhibition in vivo at 20 mg/kg: po, 20 mg/kg orally, 10 min before induction
Procedure: Immediate and late phase allergic response inhibition test
Wister male rats weighing of 200 g were provided. 1010 organisms of Bordetella pertussis and 1 mg of dinitrophenylated ovalbumin (hereinafter abbreviated to "DNP-OA") were intramuscularly administered into the foot pad of the limbs of the rats except for the right hind leg. Further, ten days after the administration, 5 pg/site DNP-OA was subcutaneously administered to the right hind leg to induce allergic foot-pad edema reaction. The inhibitory activity of the test compounds was determined in such a manner that the volume of edema 30 min after the induction of the allergic reaction was regarded as an immediate phase allergic response and the volume of edema 8 hr after the induction of the allergic reaction was regarded as a late phase allergic response. Each test compound was dissolved or suspended in a 0.25% Tween 80 solution, and the solution or suspension was orally administered at a dose of 20 mg/kg 10 min before the induction of the allergic reaction.
Only the 0.25% Tween 80 solution was administered to the control group of rats not treated with any test compound, and 100 mg/kg sodium cromoglicate was subcutaneously or orally administered to the positive control group of rats.
The percentage inhibition of the allergic foot-pad edema reaction was determined by the following equation.
Percentage inhibition of allergic foot-pad edema reaction=(A-B)/A×100
wherein A: average edema volume for the non-treated control group of rats; and
B: average edema volume for the group of rats with the test compound administered.

[2] = cited from earlier work
[3] = 0.5 h, edema 30 min after induction, read-out: Inhibition (%) Immediate phase response
[4] = edema 8 hr after induction, read-out: Inhibition (%) Late phase response

Row | Structure (SMILES) | pIC50 (intraperitoneal cells) | inhibition in vivo at 20 mg/kg [1, 3] [%] | inhibition in vivo at 20 mg/kg [1, 4] [%] | inhibition in vivo at 100 mg/kg ([1]; 0.5 h, oral administration, edema 30 min after induction, read-out: Inhibition (%) Immediate phase response) [%] | inhibition in vivo at 100 mg/kg ([1]; sc, 0.5 h, subcutaneous administration, edema 30 min after induction, read-out: Inhibition (%) Immediate phase response) [%] | inhibition in vivo at 100 mg/kg ([1]; sc, subcutaneous administration, edema 8 hr after induction, read-out: Inhibition (%) Late phase response) [%] | inhibition in vivo at 100 mg/kg ([1]; oral administration, edema 8 hr after induction, read-out: Inhibition (%) Late phase response) [%] | oral absorption [2]
1 | COc1cc2[nH]c(=O)c3nn[nH]c3c(=O)c2cc1OC(C)C [Example 23, 8-Isopropoxy-7-methoxy-4(5H),10-dioxo-1H-1,2,3-triazolo[4,5-c][1]benzazepine] | 8.62 | 71 | 56 |  |  |  |  | 
2 | CC(C)Oc1cc2[nH]c(=O)c3nn[nH]c3c(=O)c2cc1OC(C)C [Example 25, 7,8-diisopropoxy-4(5H),10-dioxo-1H-1,2,3-triazolo[4,5-c][1]benzazepine] | 8.31 | 59 | 38 |  |  |  |  | 
3 | O=c1[nH]c2cc3c(cc2c(=O)c2[nH]nnc12)OCO3 [Example 26, 7,8-Methylenedioxy-4(5H),10-dioxo-1H-1,2,3-triazolo[4,5-c][1]benzazepine] | 7.16 | 43 | 29 |  |  |  |  | 
4 | Cc1cc2[nH]c(=O)c3nn[nH]c3c(=O)c2cc1O [Example 28, 8-Hydroxy-7-methyl-4(5H),10-dioxo-1H-1,2,3-triazolo[4,5-c][1]benzazepine] | 7.92 | 51 | 48 |  |  |  |  | 
5 | COc1cc2c(=O)c3[nH]nnc3c(=O)[nH]c2c(OC)c1OC [Example 30, 6,7,8-Trimethoxy-4(5H),10-dioxo-1H-1,2,3-triazolo[4,5-c][1]benzazepine] | 8.06 | 58 | 51 |  |  |  |  | 

Continued, in another order:

Row | pIC50 (intraperitoneal cells) | Structure (SMILES) | inhibition in vivo at 20 mg/kg [1, 3] [%] | inhibition in vivo at 20 mg/kg [1, 4] [%] | inhibition in vivo at 100 mg/kg ([1]; 0.5 h, oral administration, edema 30 min after induction, read-out: Inhibition (%) Immediate phase response) [%] | inhibition in vivo at 100 mg/kg ([1]; sc, 0.5 h, subcutaneous administration, edema 30 min after induction, read-out: Inhibition (%) Immediate phase response) [%] | inhibition in vivo at 100 mg/kg ([1]; sc, subcutaneous administration, edema 8 hr after induction, read-out: Inhibition (%) Late phase response) [%] | inhibition in vivo at 100 mg/kg ([1]; oral administration, edema 8 hr after induction, read-out: Inhibition (%) Late phase response) [%] | oral absorption [2]
6 | 8.92 | Cc1cccc(/C=C/c2ccc3c(=O)c4[nH]nnc4c(=O)[nH]c3c2)n1 [Example 32, (E)-7-(2-(6-Methyl-2-pyridyl)-(E)-ethenyl)-4(5H),10-dioxo-1H-1,2,3-triazolo[4,5-c][1]benzazepine trifluoroacetate] | 55 | 43 |  |  |  |  | 
7 | 8.28 | O=c1[nH]c2cc(C(F)(F)F)ccc2c(=O)c2[nH]nnc12 [Example 34, 7-Trifluoromethyl-4(5H),10-dioxo-1H-1,2,3-triazolo[4,5-c][1]benzazepine] | 66 | 59 |  |  |  |  | 
8 | 5.74 | O=C(O)c1cc(=O)c2c(OCC(O)COc3cccc4oc(C(=O)O)cc(=O)c34)cccc2o1 [Sodium cromoglicate, reference compound] |  |  | 16 | 75 | 53 | 20 | poor oral absorption
